Measured values taken from patent publication US10633389B2, “CARM1 inhibitors and uses thereof” (Epizyme, Inc., priority 2013, dated 2020).
pIC50: −log10 of the molar value.

Key:
Type in all cases: cell-based
NCI-H929 cells = experiment: Human myeloma cell line 14-day proliferation assay, NCI-H929; details: NCI-H929 Human Multiple Myeloma cell line, varying doses, 14-day proliferation assay (FIG. 1A)
Protocol: (§1) FIGS. 1A and 1B show cell proliferation in response to the presence of compounds of the current invention. Human Multiple Myeloma cell lines NCI-H929 (FIG. 1A) and U266B1 (FIG. 1B) were treated with varying doses of 304-1a (medium grey data points), 23-3 (light grey data points), and 113-3 (black data points) in a 14-day proliferation assay. At the end of the experiment, total cell number was determined for each cell line for different doses of 304-1a, 23-3, and 113-3.
(§2) Human Multiple Myeloma cell lines NCI-H929 (FIG. 1A) and U266B1 (FIG. 1B) were treated with varying doses of 304-1a (medium grey data points), 23-3 (light grey data points), and 113-3 (black data points) in a 14-day proliferation assay. At the end of the experiment, total cell number was determined for each cell line for different doses of 304-1a, 23-3, and 113-3.

U266B1 cells = experiment: Human myeloma cell line 14-day proliferation assay, U266B1; details: U266B1 Human Multiple Myeloma cell line, varying doses, 14-day proliferation assay (FIG. 1B)
Protocol: as §1, §2

[1] = test system: asymmetric di-methyl PABP1 in RKO cells; experiment: RKO methylation assay, In Cell Western (ICW) for asymmetric di-methyl PABP1; details: Homo sapiens, RKO, Cellular potencies, ICW PABP1me2a
Procedure, shortened: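 RKO cells treated with compound for 48 h at 37 °C, then fixed, permeabilized and immunostained for asymmetric di-methyl PABP1, with DRAQ5 as DNA stain. Infrared 700/800 nm signal ratio normalized to DMSO and 20 μM reference-compound controls; IC50 from triplicate wells.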

Row | Structure (SMILES) | cell proliferation (total cell number) (NCI-H929 cells) | cell proliferation (total cell number) (U266B1 cells) | pIC50 [1]
1 | CCOC(=O)N1CCOC[C@@H]1CNc1nc(-c2cc(OC[C@H](O)CNC)ccc2Cl)nc(-c2c(C)noc2C)c1C [Example 23-3] | decreased the proliferation | decreased the proliferation | > 5.30
2 | CNC[C@@H](O)COc1ccc(Cl)c(-c2nc(-c3c(C)noc3C)c(C)c(N3Cc4cccnc4C3)n2)c1 [Example 113-3] | decreased the proliferation | decreased the proliferation | > 5.30
3 | CNC[C@@H](O)COc1ccc(Cl)c(-c2nc(NC3CCN(C(=O)OC)CC3)c(Cl)c(-c3c(C)noc3C)n2)c1 [Example 304-1a] | decreased the proliferation | decreased the proliferation | > 5.30
